The results in this text go back to patent US11912668B2, “GCN2 and perk kinase inhibitors and methods of use thereof” (Deciphera Pharmaceuticals, LLC, priority 2020, dated 2024).

pIC50: −log10 of the molar value.

In one assay the target is GCN2 kinase (Homo sapiens (Human), UniProt Q9P2K8). As to the kind of experiment: Biochemical assay for GCN2 (TR-FRET kinase activity assay). The settings on record: 1 mM ATP, 3-hour incubation. The method, boiled down:
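TR-FRET assay with 2 nM GCN2, 130 nM GFP-eIF2α substrate, 0.2 mg/mL E. coli tRNA and 1 mM ATP; compounds (0.5% DMSO) reacted 3 h. Stopped with 20 mM EDTA plus 2 nM Tb-anti-peIF2α (pSer52), 60 min RT; 520/490 ratio converted to % inhibition, IC50 from four-parameter fit.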
(In TR-FRET formats the signal depends on donor and acceptor labels being close together.)

The subject of assay [1] is phospho-GCN2 (Thr899) in HCT116 colorectal cancer cells. As to the kind of experiment: HCT116 amino acid starved (-AA) phospho-GCN2 assay (Western blot). Type of assay: cell-based. Conditions: Homo sapiens, HCT-116, 4 h, read-out: HCT116-AA pGCN2 Western Blot. The procedure, abridged: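 HCT116 cells switched to amino-acid-free EBSS (10% dialyzed FBS, 5.5 mM glucose, vitamins) with serial compound dilutions for 4 h at 37° C. Lysates Western blotted for phospho-GCN2 (Thr899), total GCN2, ATF4 and beta-actin; IC50 values derived from quantified bands.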
(A western blot detects proteins with antibodies after separation by electrophoresis.)

Assay [2] relates to ATF4 in CCRF-CEM leukemia cells (PERK). Briefly: CCRF-CEM TG ATF4 ELISA, phenotypic assay for cellular inhibition of PERK preactivated by thapsigargin. Type of assay: cell-based. Conditions: Homo sapiens; Thapsigargin (1 μM) stimulated CCRF-CEM cells. In general terms: An ELISA detects its analyte on a solid surface through an enzyme-linked reagent.
In assay [3] the test system is H929, RPMI8226, GA-10 and DoHH-2 cells. Briefly: Inhibition of multiple myeloma and B-cell lymphoma cell proliferation. Type of assay: cell-based. Conditions: combination with SOC agents for multiple myeloma or B cell lymphomas. On the procedure: H929, RPMI8226, GA-10, and DoHH-2 cells (catalog #CRL-9068) were obtained from the American Type Culture Collection (ATTC, Manassas, VA). H929 Cells were maintained in RPMI-1640 medium supplemented with 20% heat-inactivated fetal bovine serum (catalog #A3840002, ThermoFisher Scientific, Waltham, MA), 1% Penicillin/Streptomycin/L-Glutamine (catalog #10378016, ThermoFisher Scientific, Waltham, MA), and 0.05 mM 2-mercaptoethanol (catalog #21985-023, ThermoFisher Scientific, Waltham, MA). […]
For cell proliferation assay appropriate number of cells (Forty thousand cells for H929; Twenty thousand cells for RPMI8226, and GA-10; Eight thousand cells for DoHH-2) were seeded per well in 200 μL in respective medium were dispensed into a 96-well black clear bottom plate. […] Plates were read on a Synergy2 or equivalent reader (Biotek, Winooski VT) using an excitation of 540 nm and an emission of 600 nm. At the end of the incubation of DoHH-2, cell viability was determined using CellTiter-Glo® assay (Promega, Madison, WI). Luminescence was measured using EnVision MultiLabel Reader (PerkinElmer, Waltham, MA). Data was analyzed using GraphPad Prism software (GraphPad, San Diego, CA) to calculate IC50 values.

GCN2 kinase, sequence (Q9P2K8 whole entry): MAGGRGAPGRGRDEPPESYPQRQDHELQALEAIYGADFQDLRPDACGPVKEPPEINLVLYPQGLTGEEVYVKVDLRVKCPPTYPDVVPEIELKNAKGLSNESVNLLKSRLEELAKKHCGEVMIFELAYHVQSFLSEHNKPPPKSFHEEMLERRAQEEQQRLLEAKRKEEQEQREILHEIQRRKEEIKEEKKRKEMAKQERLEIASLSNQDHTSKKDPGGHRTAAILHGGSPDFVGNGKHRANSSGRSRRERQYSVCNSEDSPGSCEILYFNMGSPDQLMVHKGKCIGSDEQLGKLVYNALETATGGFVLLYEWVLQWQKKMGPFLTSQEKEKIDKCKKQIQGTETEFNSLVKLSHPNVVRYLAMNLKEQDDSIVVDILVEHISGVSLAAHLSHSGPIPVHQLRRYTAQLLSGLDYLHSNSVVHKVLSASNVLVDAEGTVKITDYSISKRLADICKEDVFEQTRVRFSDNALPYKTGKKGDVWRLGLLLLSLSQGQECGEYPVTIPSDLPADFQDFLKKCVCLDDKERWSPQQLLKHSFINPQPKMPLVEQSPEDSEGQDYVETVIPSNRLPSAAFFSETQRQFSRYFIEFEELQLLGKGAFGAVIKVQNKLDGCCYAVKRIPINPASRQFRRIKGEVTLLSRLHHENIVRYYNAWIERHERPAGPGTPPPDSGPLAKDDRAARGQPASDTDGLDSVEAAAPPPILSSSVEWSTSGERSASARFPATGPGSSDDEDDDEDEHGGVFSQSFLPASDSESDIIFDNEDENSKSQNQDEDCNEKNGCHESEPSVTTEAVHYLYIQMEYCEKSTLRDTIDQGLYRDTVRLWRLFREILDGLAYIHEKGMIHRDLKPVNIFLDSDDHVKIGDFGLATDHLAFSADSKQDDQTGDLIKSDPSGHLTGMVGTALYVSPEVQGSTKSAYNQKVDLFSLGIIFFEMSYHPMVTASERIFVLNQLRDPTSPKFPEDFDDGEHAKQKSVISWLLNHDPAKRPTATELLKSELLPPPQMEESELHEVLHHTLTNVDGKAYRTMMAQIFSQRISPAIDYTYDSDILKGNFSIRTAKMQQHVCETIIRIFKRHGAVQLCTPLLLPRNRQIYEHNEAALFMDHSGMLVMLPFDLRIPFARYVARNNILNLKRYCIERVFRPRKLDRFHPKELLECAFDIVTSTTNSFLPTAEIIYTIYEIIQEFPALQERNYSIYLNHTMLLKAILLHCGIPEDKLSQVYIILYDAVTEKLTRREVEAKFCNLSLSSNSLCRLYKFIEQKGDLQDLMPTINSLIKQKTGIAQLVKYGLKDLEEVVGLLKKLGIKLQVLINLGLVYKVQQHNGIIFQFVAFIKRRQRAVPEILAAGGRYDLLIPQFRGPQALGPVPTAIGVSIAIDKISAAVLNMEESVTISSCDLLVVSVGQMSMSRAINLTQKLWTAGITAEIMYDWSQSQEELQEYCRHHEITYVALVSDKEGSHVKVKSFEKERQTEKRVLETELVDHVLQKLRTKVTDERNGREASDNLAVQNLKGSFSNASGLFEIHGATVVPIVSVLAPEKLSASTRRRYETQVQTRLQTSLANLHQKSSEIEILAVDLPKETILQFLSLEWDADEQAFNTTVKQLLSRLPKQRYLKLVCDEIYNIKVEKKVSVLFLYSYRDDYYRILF

`CNc1ncc2cc(-c3cccc(NS(=O)(=O)c4cc(Cl)cnc4OC)c3F)c(NC)nc2n1` [Compound 16]: the pIC50 at GCN2 kinase was ≥ 7.00; in assay [1], ≥ 7.00; in assay [2] it was 5.00 to 6.00. Further, the “inhibition of cell proliferation in combination with standard of care agents” value in assay [3] is on record as “additivity or synergy”.
